According to US20220009920A1 (GB005, Inc., priority 2020, published 2022):

Experiments:
Experiment in all cases: Large panel kinase profiling
Type in all cases: biochemical
Settings in all cases: 1 μM test article, 1 mM ATP
PRKACA = PRKACA (Homo sapiens, UniProt P17612)
Procedure, shortened: (§1)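 Kinase activity was followed with the PhosphoSens CSox-Sensor platform, testing compound at 1 μM in the presence of 1 mM ATP. Reactions ran at 30° C. and fluorescence (Ex 360 nm/Em 485 nm) was read kinetically every 1 min.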

RET = RET (Homo sapiens, UniProt P07949)
Chain of RET (P07949 29-1114, species assumed): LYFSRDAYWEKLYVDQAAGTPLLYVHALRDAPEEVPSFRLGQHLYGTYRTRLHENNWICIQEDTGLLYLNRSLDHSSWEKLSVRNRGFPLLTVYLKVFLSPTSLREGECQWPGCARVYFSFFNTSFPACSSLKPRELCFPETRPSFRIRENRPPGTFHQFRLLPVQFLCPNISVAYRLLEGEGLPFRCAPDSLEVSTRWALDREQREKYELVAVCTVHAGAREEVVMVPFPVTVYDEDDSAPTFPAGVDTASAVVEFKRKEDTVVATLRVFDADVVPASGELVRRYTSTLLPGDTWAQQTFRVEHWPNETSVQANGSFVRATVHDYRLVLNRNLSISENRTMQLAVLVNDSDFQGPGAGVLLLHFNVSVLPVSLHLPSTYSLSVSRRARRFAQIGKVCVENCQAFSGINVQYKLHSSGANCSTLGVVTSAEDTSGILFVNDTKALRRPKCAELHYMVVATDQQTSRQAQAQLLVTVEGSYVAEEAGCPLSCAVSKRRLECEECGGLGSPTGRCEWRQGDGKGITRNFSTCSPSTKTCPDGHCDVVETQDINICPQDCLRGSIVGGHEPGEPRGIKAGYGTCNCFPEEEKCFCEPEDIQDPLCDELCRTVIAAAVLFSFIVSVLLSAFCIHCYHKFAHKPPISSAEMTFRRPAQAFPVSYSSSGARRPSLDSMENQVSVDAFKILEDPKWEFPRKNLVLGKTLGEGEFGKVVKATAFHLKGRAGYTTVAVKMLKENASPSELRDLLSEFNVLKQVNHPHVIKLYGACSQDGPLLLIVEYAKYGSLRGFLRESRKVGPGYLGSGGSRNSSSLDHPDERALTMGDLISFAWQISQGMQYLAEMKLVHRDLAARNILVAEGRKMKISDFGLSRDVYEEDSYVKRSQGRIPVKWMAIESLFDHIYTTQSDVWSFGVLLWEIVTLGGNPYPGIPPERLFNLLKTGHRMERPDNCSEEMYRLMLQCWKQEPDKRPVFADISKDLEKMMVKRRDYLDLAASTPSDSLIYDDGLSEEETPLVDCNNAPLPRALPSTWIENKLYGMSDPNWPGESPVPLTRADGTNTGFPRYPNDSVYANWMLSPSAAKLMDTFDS
Procedure, shortened: as §1

MYO3B = target: T1, MYO3B (Homo sapiens, UniProt Q8WXR4)
T1 construct: AssayQuant Technologies, Inc. (assay service)
T1 sequence (Q8WXR4 1-1341): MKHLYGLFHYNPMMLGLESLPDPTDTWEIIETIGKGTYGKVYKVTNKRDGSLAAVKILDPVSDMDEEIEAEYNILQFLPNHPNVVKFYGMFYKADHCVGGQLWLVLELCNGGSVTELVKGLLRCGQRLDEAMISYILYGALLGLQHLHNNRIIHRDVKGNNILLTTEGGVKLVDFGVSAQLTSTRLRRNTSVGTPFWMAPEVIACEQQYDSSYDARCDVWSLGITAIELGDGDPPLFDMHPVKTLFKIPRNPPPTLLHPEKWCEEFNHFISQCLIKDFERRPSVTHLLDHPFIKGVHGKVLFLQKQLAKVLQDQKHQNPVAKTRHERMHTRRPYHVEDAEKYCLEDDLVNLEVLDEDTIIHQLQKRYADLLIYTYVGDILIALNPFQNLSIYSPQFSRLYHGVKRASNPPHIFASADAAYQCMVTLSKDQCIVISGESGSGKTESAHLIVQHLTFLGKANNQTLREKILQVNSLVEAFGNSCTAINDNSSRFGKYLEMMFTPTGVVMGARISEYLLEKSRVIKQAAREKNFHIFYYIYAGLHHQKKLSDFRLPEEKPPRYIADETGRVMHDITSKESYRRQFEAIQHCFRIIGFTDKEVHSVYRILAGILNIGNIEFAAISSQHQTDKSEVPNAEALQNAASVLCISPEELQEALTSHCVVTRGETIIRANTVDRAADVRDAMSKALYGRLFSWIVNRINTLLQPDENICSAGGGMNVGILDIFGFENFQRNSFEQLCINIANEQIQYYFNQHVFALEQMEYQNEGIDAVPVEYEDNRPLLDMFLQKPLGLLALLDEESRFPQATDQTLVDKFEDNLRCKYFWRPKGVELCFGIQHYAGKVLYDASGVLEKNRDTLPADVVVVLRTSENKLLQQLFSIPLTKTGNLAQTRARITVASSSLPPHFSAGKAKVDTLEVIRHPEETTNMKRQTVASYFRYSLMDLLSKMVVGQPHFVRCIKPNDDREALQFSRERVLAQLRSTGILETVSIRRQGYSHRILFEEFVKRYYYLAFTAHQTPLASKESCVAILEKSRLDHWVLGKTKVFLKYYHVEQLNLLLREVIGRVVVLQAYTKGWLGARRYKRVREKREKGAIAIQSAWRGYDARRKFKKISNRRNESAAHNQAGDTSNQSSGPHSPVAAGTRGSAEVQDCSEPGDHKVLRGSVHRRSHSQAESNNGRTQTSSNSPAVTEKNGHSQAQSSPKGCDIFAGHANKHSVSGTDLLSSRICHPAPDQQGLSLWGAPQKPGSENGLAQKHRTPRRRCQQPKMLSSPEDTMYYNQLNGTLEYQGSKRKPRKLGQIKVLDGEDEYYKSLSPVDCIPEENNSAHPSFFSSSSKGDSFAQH
Procedure, shortened: as §1

PDGFRB = PDGFRB (Homo sapiens, UniProt P09619)
Chain of PDGFRB (P09619 33-1106, species assumed): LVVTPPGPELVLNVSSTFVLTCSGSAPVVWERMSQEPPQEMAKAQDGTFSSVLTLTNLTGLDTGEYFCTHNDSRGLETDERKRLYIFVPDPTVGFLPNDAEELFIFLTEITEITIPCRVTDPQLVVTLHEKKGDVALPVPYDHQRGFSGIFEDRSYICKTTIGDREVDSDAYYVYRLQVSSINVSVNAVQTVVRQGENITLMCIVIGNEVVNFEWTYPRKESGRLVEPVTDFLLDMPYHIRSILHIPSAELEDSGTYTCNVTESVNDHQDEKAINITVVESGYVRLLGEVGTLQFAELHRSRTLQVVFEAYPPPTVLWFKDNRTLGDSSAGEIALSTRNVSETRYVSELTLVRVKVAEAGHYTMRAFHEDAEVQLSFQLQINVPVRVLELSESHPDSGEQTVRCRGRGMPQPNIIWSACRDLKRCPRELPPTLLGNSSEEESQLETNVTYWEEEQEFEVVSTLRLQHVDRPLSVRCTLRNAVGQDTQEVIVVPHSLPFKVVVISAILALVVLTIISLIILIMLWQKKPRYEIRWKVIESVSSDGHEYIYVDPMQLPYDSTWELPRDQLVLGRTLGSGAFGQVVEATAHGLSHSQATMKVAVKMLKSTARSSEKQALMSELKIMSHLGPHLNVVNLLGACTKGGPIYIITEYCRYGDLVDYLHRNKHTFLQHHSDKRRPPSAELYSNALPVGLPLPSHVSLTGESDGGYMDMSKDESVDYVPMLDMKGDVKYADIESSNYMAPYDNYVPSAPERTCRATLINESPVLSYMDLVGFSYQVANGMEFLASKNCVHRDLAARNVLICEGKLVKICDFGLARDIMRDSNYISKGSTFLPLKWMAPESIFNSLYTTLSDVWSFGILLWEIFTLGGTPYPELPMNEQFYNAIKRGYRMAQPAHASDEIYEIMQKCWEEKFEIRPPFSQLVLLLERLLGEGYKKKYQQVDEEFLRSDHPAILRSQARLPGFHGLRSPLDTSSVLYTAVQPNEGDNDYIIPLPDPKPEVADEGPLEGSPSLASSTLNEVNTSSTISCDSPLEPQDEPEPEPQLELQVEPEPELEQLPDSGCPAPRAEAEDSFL
Procedure, shortened: as §1

GRK3 = target: T2, GRK3 (Homo sapiens, UniProt P35626)
T2 construct: AssayQuant Technologies, Inc. (service provider)
T2 sequence (P35626 1-688): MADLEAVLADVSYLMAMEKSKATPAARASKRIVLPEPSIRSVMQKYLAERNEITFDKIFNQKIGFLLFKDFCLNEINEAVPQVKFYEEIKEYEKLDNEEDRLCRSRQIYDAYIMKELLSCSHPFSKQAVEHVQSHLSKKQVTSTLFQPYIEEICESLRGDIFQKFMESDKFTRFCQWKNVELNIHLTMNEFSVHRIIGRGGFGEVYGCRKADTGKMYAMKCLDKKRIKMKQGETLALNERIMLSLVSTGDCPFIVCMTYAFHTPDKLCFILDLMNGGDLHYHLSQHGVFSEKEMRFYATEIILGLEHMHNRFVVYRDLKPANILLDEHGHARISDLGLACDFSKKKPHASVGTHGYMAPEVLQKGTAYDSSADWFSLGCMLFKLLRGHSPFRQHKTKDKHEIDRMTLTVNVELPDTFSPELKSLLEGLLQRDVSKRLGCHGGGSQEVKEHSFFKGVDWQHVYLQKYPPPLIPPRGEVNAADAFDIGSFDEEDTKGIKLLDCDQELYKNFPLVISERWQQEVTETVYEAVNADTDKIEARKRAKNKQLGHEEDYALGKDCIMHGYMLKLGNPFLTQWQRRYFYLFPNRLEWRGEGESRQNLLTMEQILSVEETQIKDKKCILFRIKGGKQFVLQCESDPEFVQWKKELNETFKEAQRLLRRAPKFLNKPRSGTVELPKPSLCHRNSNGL
Procedure, shortened: as §1

Structure (SMILES) | inhibition at 1 µM (PRKACA) [%] | inhibition at 1 µM (RET) [%] | inhibition at 1 µM (MYO3B) [%] | inhibition at 1 µM (PDGFRB) [%] | inhibition at 1 µM (GRK3) [%]
C=CC(=O)N1CCCC(c2c(F)cc(C(N)=O)c3[nH]c4c(c23)CCCCC4)C1 (single isomer, unassigned) [Compound 5-6] | 11.4 | -24 | -36.2 | -52.9 | -25.6
C=CC(=O)N1CCC[C@@H](c2c(F)cc(C(N)=O)c3[nH]c4c(c23)CC2(CC4)CC2)C1 [Compound 6-2, (S)-5-(1-acryloylpiperidin-3-yl)-6-fluoro-1,2,4,9-tetrahydrospiro[carbazole-3,1′-cyclopropane]-8-carboxamide] | 12.2 | 23 | -16.5 | 23.2 | -48.3
C=CC(=O)N1CCC[C@@H](c2c(F)cc(C(N)=O)c3[nH]c4c(c23)CCC4)C1 [Compound 10-2, (S)-8-(1-acryloylpiperidin-3-yl)-7-fluoro-1,2,3,4-tetrahydrocyclo-penta[b]indole-5-carboxamide] | 1 | 6 | -11 | 4.7 | -42.7
